Tested on: panel of 50 SH2 domains
Assay: SPOT peptide array probed with each of 50 GST-SH2 domains
Assay type: binding
Details: SPOT192 peptide array; for SH2 Domains >3X: list of GST-SH2 domains with spot intensity >3X array mean (array-positive); for 2X < SH2 Domains < 3X: list of GST-SH2 domains with spot intensity between 2X and 3X array mean (indeterminate range)
Description: The use of addressable peptide arrays is a reproducible and semi-quantitative approach that has been extensively validated for studying protein interactions with peptide ligands. To investigate connections between SH2 domain proteins and their putative phosphorylated docking sites on cell surface receptors, we developed addressable arrays consisting of 192 phosphotyrosine peptides. This peptide set was assembled using 71 phosphotyrosine peptide motifs corresponding to all of the cytoplasmic tyrosine residues within the FGF receptors (FGFR1-4), insulin receptor (InsR) and IGF-1 receptor (IGF-1R) (Figure 1A). Activation of these receptors results in the phosphorylation of associated scaffold proteins, and so 75 phosphotyrosine peptides corresponding to a comprehensive list of tyrosine residues within insulin receptor substrates (IRS-1 and IRS-2) and fibroblast receptor substrates (FRS-2 and FRS-3) were included. In addition, 33 phosphotyrosine peptides were incorporated from the downstream signaling proteins PLC-γ1, p130Cas (BCAR1) and p62DOK1. […] These control peptides provide a reference and establish the empirical cut-off for designated binding interactions (Table 1). No discrimination was made against peptides on the basis of reported phosphorylation state in order to examine a diverse and unbiased set of motifs. The resulting set of 192 phosphotyrosine peptides and their corresponding position in the proteins of origin is noted in Additional file 1: Table S1. Addressable arrays were synthesized as membrane-bound 11-mer peptides using the SPOT synthesis technique. While the majority of SH2 domains recognize residues C-terminal to the phosphotyrosine in their cognate peptide ligands, additional contacts between SH2 domains and residues N-terminal to the phosphotyrosine are observed for the SH2 domain of Sh2d1a (SAP) and cannot be ruled out in other cases. Peptides were synthesized with six flanking residues C-terminal to the phosphotyrosine and four residues N-terminal to the phosphotyrosine.
To assess the potential network of SH2 domain interactions we selected 50 SH2 domains representing 28 of the 38 families of SH2 domains (Figure 1B) all of which we have previously shown can be expressed and purified. These include a number of extensively studied SH2 domains (Src, Grb2, PLCγ), as well as a number of less studied SH2 domains from proteins such as Shd, She, Shf, Slnk (Sh2d6), Sh2d1a (SAP), Sh2d1b (Eat-2), and Brdg1. To address potential variability in specificity within families we employed all members from the SHB, CRK, GRB2, SRC and ABL families (families are indicated with complete Capitalized lettering).
SH2 domains were arrayed as GST fusion proteins and detected using anti-GST primary antibodies and near-infrared labeled secondary antibodies. In an effort to present a dataset with minimal false positives, we chose an empirical cutoff based on the array average across all peptide spots to classify interactions (Figure 1A). In cases where the intensity of the signal for an individual SH2-domain binding event exceeded the mean intensity of all the peptides on the membrane by three-fold were scored as “array positives” [22]. Non-binding was judged in cases where the intensity of a spot was less than the mean intensity of all spots on the membrane and these were scored as “array negatives”. Peptides with signal intensities between 1X and 3X mean were scored as “indeterminate” and ascribed as neither array positive binding interactions nor array-negative non-binders. […] This signature may be indicative of promiscuity differences between phosphopeptides or there may be a subset of peptides which interact in a nonspecific fashion with either the GST fusion tag or one of the antibodies used for detection, resulting in false positives. […]

Substance | SH2 Domains >3X | 2X < SH2 Domains < 3X
MCKVpYSDPQPH [E02] | CRKL | –
DLSApYASISFQ [C23] | PTPN11_N, PTPN11_C | SH2D1B, SHD, SHE
ELSNpYICMGGK [C01] | PI3K1_C | –
RGMQpYLESRKA [F15] | BCAR3, BRDG1, TENC1 | BMX, ITK, MIST, PLCG2_N, PLCG2_C, SHF
ELILpYTRKRDS [F20] | BCAR3, BRDG1, MIST, PLCG2_N, SHF, TENC1 | BMX, DAPP1, PLCG2_C, PTPN11_C, RASA1_C, SHB, SHD
TRDIpYETDpYpYR [A13] | ABL2, BCAR3, CRK, CRKL, DAPP1, GRB7, PI3K1_C, PLCG2_C | FGR, HCK, RASA1_N, SH2D1B, SRC, FGR, GRB7, LCK, LYN, MIST, RIN1
YKAPpYTAGGDS [D22] | MIST | –
GGPLpYVLVEYA [F07] | MIST, RASA1_N, SHE, SYK_C, ZAP70_N | ITK, SHD
YPEDpYGDIEIG [D17] | BMX, BRK, FGR, SLNK, SRC | BLK, FER, FYN, HCK, GRB7, ITK, LCK, LYN, RASA1_N, SH2D1B, SHC1, YES
WMEDpYDYVHLQ [H12] | BCAR3, BMX, BRK, CRK, CRKL, DAPP1, FER, GRB7, ITK, MATK, NCK1, PI3K1_N, PLCG2_N, RASA1_N, RASA1_C, RIN1, SH3BP2, TENC1 | ABL1, BLK, FYN, HCK, LCK, LYN, PLCG2_C, SH2D1B, SHB, SHC1, SHIP1, SRC
MCWQpYNPKMRP [B14] | BCAR3, BMX, BRDG1, FER, MIST, TENC1 | ITK, MATK, PLCG2_N, PLCG2_C, PTPN11_C, SHB, SHF, SHD, SYK_C
DGMApYLNAKKF [A23] | BCAR3, BMX, BRDG1, FER, GRB2, MIST, PTPN11_N, PTPN11_C, RIN1, Sh2b, SHF, SHD, TENC1 | BRK, DAPP1, FGR, ITK, MATK, PI3K1_N, PI3K1_C, PLCG2_N, PLCG2_C, SH3BP2, SHB, SHE, YES
LVALpYTRDEHF [B21] | – | SH2D2A
EYRKpYGGAKLN [B07] | BCAR3, BMX, BRDG1, BRK, FER, PLCG2_N, TENC1 | ITK, MIST, PTPN11_C, RIN1, SHF, SHD, SYK_C
VSCApYQVARGM [E11] | BRDG1 | CRK, ITK, MIST, PLCG2_N, SHB, SHF
PGMEpYSYDINR [E21] | BRDG1, GRB7 | LCK, RASA1_N

Substance | SH2 Domains >3X | 2X < SH2 Domains < 3X
FAQLpYRSLMYS [G18] | BRDG1, MIST, Sh2b, SH2D2A, SHB, SHF, SHD, TENC1, ZAP70_N | BMX, DAPP1, GADS, GRAP, PLCG2_N, PTPN11_C, SYK_C
SGTSpYGKLWTN [C08] | BCAR3, BMX, BRDG1, CRK, FER, MIST, PTPN11_C, SH2D1B, SHC1, SHF, SYK_C, TENC1 | CRKL, DAPP1, GADS, ITK, MATK, PLCG2_C, PTPN11_N, RIN1, Sh2b, SH3BP2, SHB, SHD, SHE, YES
DPMPpYEPALPQ [F05] | FYN, LYN, SHIP1, YES | FGR, LCK, SH2D1B, SHC1
ADDGpYMPMTPG [D18] | HCK, SRC | PI3K1_C
NLREpYLRARRP [E20] | BCAR3, BMX, BRDG1, MIST, PLCG2_N, RIN1, SHF, SHD, TENC1 | BRK, DAPP1, FER, PI3K1_N, PLCG2_C, PTPN11_C, Sh2b, SHB
RKVGpYLRKPKS [B18] | BCAR3, BMX, BRDG1, BRK, FER, PI3K1_N, RIN1, TENC1 | MATK, MIST, PLCG2_N, PTPN11_C, SHB, SHF, SHD
SDDDpYDDVDIP [A12] | BRK, NCK1, SLNK | –
MEYSpYDINRVP [E22] | ABL1 | –
PLSDpYMNLDFS [D24] | GADS, GRAP, GRB2, RASA1_N, SYK_C | ABL1, GRB7, PI3K1_C, PLCG2_N, RASA1_C
RTELpYAVIDIE [G10] | ABL2, BMX, ITK, MIST, PLCG2_C, RASA1_N, Sh2b, SH2D1B, SHB, SHF, SHE, SYK_C | ABL1, BRK, RASA1_C, SHD, YES
VLVEpYAAKGNL [F08] | – | MIST, ZAP70_N
DNLPpYVQILKT [E03] | BRDG1, MIST, PI3K1_N, PTPN11_C, Sh2b, TENC1 | BCAR3, FER, GRAP, MATK, PI3K1_C, PTPN11_N, RIN1, SHD
YGALpYEGRNPG [H02] | – | SH3BP2, ZAP70_N
CGRSpYRRVSGD [D12] | BCAR3 | BRDG1, ITK, MIST, PLCG2_N, SHB, SHF, SYK_C, TENC1
STDEpYLDLSAP [F11] | LCK | –
HHIDpYYKKTSN [F16] | BCAR3, BMX, BRDG1, FER, PLCG2_N, PTPN11_C, SHF, TENC1 | DAPP1, ITK, MATK, MIST, PI3K1_N, PLCG2_C, PTPN11_N, RIN1, SH3BP2, SHB, SHD, SHIP1

— article PMC3514216, “SRC Homology 2 Domain Binding Sites in Insulin, IGF-1 and FGF receptor mediated signaling networks reveal an extensive potential interactome” (Cell Communication and Signaling : CCS, 2012)
